Laboratory results as given in patent publication US9920339B2, “Methods, reagents and cells for biosynthesizing compounds” (INVISTA North America S.á r.l., priority 2014, dated 2018).

Assays:
Assay type in all cases: biochemical
[1] = molecular target: T1, Mycobacterium marinum carboxylate reductase (SEQ ID NO: 2), enhanced by the gene product of sfp (Mycobacterium marinum, UniProt B2HN69); test: carboxylate reductase enzyme activity assay, NADPH consumption at 340 nm; details: SEQ ID NO 2 with sfp; 2 mM substrate, 10 mM MgCl2, 1 mM ATP, 1 mM NADPH, pH 7.5, room temperature, 20 min; absorbance at 340 nm
T1 construct: His-tag (N); made in house; host or cells: E. coli BL21[DE3], pET Duet
Description: (§1) A nucleotide sequence encoding a His-tag was added to the genes from Mycobacterium marinum, Mycobacterium smegmatis, Segniliparus rugosus, Mycobacterium massiliense, and Segniliparus rotundus that encode the carboxylate reductases of SEQ ID NOs: 2-4, 6 and 7, respectively (GenBank Accession Nos. ACC40567.1, ABK71854.1, EFV11917.1, EIV11143.1, and ADG98140.1, respectively) (see FIG. 10) such that N-terminal HIS tagged carboxylate reductases could be produced. Each of the modified genes was cloned into a pET Duet expression vector alongside a sfp gene encoding a His-tagged phosphopantetheine transferase from Bacillus subtilis, both under control of the T7 promoter. Each expression vector was transformed into a BL21[DE3] E. coli host along with the expression vectors from Example 3. Each resulting recombinant E. coli strain was cultivated at 37° C. in a 250 mL shake flask culture containing 50 mL LB media and antibiotic selection pressure, with shaking at 230 rpm. Each culture was induced overnight at 37° C. using an auto-induction media.
(§2) The pellet from each induced shake flask culture was harvested via centrifugation. Each pellet was resuspended and lysed via sonication. The cell debris was separated from the supernatant via centrifugation. The carboxylate reductases and phosphopantetheine transferase were purified from the supernatant using Ni-affinity chromatography, diluted 10-fold into 50 mM HEPES buffer (pH=7.5) and concentrated via ultrafiltration.
(§3) Enzyme activity (i.e., 5-hydroxypentanoate to 5-hydroxypentanal) assays were performed in triplicate in a buffer composed of a final concentration of 50 mM HEPES buffer (pH=7.5), 2 mM 5-hydroxypentanal, 10 mM MgCl2, 1 mM ATP, and 1 mM NADPH. Each enzyme activity assay reaction was initiated by adding purified carboxylate reductase and phosphopantetheine transferase or the empty vector control to the assay buffer containing the 5-hydroxypentanoate and then incubated at room temperature for 20 min. The consumption of NADPH was monitored by absorbance at 340 nm.
(§4) The N-terminal His-tagged carboxylate reductase of SEQ ID NO 2-4 and 7 (see Example 2 and FIG. 10) was assayed using glutarate methyl ester as substrate. The enzyme activity assay was performed in triplicate in a buffer composed of a final concentration of 50 mM HEPES buffer (pH=7.5), 2 mM glutarate methyl ester, 10 mM MgCl2, 1 mM ATP and 1 mM NADPH. The enzyme activity assay reaction was initiated by adding purified carboxylate reductase and phosphopantetheine transferase or the empty vector control to the assay buffer containing the glutarate semialdehyde and then incubated at room temperature for 20 min. The consumption of NADPH was monitored by absorbance at 340 nm.

[2] = tested on: Mycobacterium smegmatis carboxylate reductase (SEQ ID NO: 3), enhanced by the gene product of sfp; test: as above; details: SEQ ID NO 3 with sfp; 2 mM substrate, 10 mM MgCl2, 1 mM ATP, 1 mM NADPH, pH 7.5, room temperature, 20 min; absorbance at 340 nm
Description: as §1, §2, §3, §4

[3] = tested on: Segniliparus rugosus carboxylate reductase (SEQ ID NO: 4), enhanced by the gene product of sfp; test: as above; details: SEQ ID NO 4 with sfp; 2 mM substrate, 10 mM MgCl2, 1 mM ATP, 1 mM NADPH, pH 7.5, room temperature, 20 min; absorbance at 340 nm
Description: as §1, §2, §3, §4

[4] = tested on: Segniliparus rotundus carboxylate reductase (SEQ ID NO: 7), enhanced by the gene product of sfp; test: as above; details: SEQ ID NO 7 with sfp; 2 mM substrate, 10 mM MgCl2, 1 mM ATP, 1 mM NADPH, pH 7.5, room temperature, 20 min; absorbance at 340 nm
Description: as §1
The pellet from each induced shake flask culture was harvested via centrifugation. Each pellet was resuspended and lysed via sonication. The cell debris was separated from the supernatant via centrifugation. […]
(§5) Enzyme activity (i.e., 5-hydroxypentanoate to 5-hydroxypentanal) assays were performed in triplicate in a buffer composed of a final concentration of 50 mM HEPES buffer (pH=7.5), 2 mM 5-hydroxypentanal, 10 mM MgCl2, 1 mM ATP, and 1 mM NADPH. […] The consumption of NADPH was monitored by absorbance at 340 nm.
The N-terminal His-tagged carboxylate reductase of SEQ ID NO 7 (see Example 2 and FIG. 10) was assayed using glutarate semialdehyde as substrate. […] The consumption of NADPH was monitored by absorbance at 340 nm.
The N-terminal His-tagged carboxylate reductase of SEQ ID NO 2-4 and 7 (see Example 2 and FIG. 10) was assayed using glutarate methyl ester as substrate. […] The consumption of NADPH was monitored by absorbance at 340 nm.

[5] = tested on: Mycobacterium massiliense carboxylate reductase (SEQ ID NO: 6), enhanced by the gene product of sfp; test: as above; details: SEQ ID NO 6 with sfp; 2 mM substrate, 10 mM MgCl2, 1 mM ATP, 1 mM NADPH, pH 7.5, room temperature, 20 min; absorbance at 340 nm
Description: as §1, with “media. […]” for “media.”
as §5

[6] = molecular target: T2, Escherichia coli pimeloyl-[acp] methyl ester methylesterase (SEQ ID NO: 1) (Escherichia coli, UniProt P13001); test: pimeloyl-[acp] methyl ester methylesterase enzyme activity assay, glutaryl-CoA formation by LC-MS; details: SEQ ID NO 1, 10 μM enzyme; 5 mM glutaryl-CoA methyl ester, 25 mM Tris.HCl pH 7.0, 30° C., 1 h
T2 construct: His-tag (C); made in house; host or cells: E. coli BL21[DE3], pET28b+
Description: A sequence encoding an C-terminal His-tag was added to the gene from Escherichia coli encoding the pimeloyl-[acp] methyl ester methylesterase of SEQ ID NO: 1 (see FIG. 10) such that C-terminal HIS tagged pimeloyl-[acp] methyl ester methylesterase could be produced. The resulting modified gene was cloned into a pET28b+ expression vector under control of the T7 promoter and the expression vector was transformed into a BL21[DE3] E. coli host. The resulting recombinant E. coli strain was cultivated at 37° C. in a 500 mL shake flask culture containing 100 mL LB media and antibiotic selection pressure, with shaking at 230 rpm. Each culture was induced overnight at 18° C. using 0.3 mM IPTG.
The pellet from each induced shake flask culture was harvested via centrifugation. Each pellet was resuspended and lysed via sonication. The cell debris was separated from the supernatant via centrifugation. The pimeloyl-[acp] methyl ester methylesterase was purified from the supernatant using Ni-affinity chromatography, buffer exchanged and concentrated into 20 mM HEPES buffer (pH=7.5) via ultrafiltration and stored at 4° C.
Enzyme activity assays converting glutaryl-CoA methyl ester to glutaryl-CoA were performed in triplicate in a buffer composed of a final concentration of 25 mM Tris.HCl buffer (pH=7.0) and 5 [mM] glutaryl-CoA methyl ester. […] The formation of glutaryl-CoA was quantified via LC-MS.

T1 sequence (B2HN69 whole entry): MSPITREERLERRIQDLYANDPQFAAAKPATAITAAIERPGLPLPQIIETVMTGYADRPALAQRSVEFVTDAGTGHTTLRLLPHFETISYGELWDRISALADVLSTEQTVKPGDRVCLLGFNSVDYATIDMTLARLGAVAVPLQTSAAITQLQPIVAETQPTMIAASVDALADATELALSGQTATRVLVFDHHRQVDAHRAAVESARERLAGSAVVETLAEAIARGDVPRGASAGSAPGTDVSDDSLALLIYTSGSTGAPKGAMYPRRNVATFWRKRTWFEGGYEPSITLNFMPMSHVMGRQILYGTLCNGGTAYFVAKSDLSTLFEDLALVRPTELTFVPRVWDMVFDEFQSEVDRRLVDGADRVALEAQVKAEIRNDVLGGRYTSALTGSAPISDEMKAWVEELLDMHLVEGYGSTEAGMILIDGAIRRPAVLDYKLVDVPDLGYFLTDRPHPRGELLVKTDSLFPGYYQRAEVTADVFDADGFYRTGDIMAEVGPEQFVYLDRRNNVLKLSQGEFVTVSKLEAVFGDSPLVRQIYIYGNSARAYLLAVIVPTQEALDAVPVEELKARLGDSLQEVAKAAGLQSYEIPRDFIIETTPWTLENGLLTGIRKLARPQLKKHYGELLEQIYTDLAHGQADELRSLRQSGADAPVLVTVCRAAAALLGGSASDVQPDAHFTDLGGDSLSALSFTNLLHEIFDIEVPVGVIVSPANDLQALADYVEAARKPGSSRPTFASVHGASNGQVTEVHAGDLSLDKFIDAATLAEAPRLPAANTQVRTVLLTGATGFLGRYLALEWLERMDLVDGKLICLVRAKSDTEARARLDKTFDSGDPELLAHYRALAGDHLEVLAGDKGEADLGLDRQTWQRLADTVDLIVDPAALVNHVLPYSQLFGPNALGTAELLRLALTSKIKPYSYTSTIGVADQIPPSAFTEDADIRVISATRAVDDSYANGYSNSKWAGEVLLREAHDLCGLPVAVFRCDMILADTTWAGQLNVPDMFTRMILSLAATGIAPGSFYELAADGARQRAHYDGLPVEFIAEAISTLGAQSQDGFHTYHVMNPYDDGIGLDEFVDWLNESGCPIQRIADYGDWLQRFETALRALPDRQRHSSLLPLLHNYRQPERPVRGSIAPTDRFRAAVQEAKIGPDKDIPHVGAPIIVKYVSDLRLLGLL
T2 sequence (P13001 whole entry): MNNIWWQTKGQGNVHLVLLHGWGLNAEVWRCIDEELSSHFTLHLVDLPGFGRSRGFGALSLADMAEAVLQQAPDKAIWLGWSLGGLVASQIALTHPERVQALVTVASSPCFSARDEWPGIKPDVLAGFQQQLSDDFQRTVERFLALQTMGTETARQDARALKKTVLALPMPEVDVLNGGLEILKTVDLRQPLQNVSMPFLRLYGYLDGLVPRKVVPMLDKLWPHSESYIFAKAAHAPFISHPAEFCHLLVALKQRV

O=C(O)CCCCO [5-hydroxypentanoate]
accepted: accepted as substrate as confirmed against the empty vector control [1] | accepted as substrate as confirmed against the empty vector control [2] | accepted as substrate as confirmed against the empty vector control [3] | accepted as substrate as confirmed against the empty vector control [4] | accepted as substrate as confirmed against the empty vector control [5]

COC(=O)CCCC(=O)SCCNC(=O)CCNC(=O)C(O)C(C)(C)COP(=O)(O)OP(=O)(O)OCC1OC(n2cnc3c(N)ncnc32)C(O)C1OP(=O)(O)O (stereo not drawn) [glutaryl-CoA methyl ester]
accepted: accepted as substrate, glutaryl-CoA synthesized as reaction product as confirmed via LC-MS [6]
